Patent publication US10875858B2, “Process for preparing halogenated pyridine derivatives” (Bayer CropScience Aktiengesellschaft, priority 2016, dated 2020)

Assay: log P by HPLC-MS
Assay type: physicochemical

Row | chromatographic logP | Compound
1 | 2.09 | COC(=O)c1ccc(F)c(-c2nc3cc(C(F)(F)F)nnc3n2C)n1 [Example 7, methyl 5-fluoro-6-[7-methyl-3-(trifluoromethyl)-7H-imidazo[4,5-c]pyridazin-6-yl]pyridine-2-carboxylate]
2 | 2.58 | Cn1c(-c2nc(Br)ccc2F)nc2cc(C(F)(F)F)nnc21 [Example 8, 6-(6-bromo-3-fluoropyridin-2-yl)-7-methyl-3-(trifluoromethyl)-7H-imidazo[4,5-c]pyridazine]
3 | 2.46 | Cn1c(-c2nc(Cl)ccc2F)nc2cc(C(F)(F)F)nnc21 [Example 6, 6-(6-chloro-3-fluoropyridin-2-yl)-7-methyl-3-(trifluoromethyl)-7H-imidazo[4,5-c]pyridazine]

Second part, the compound before the results:

Row | Compound | chromatographic logP
4 | COC(=O)c1ccc(F)c(-c2nc3cc(C(F)(F)F)ncc3n2C)n1 [Example 3, methyl 5-fluoro-6-[3-methyl-6-(trifluoromethyl)-3H-imidazo[4,5-c]pyridin-2-yl]pyridine-2-carboxylate] | 2.03
5 | Cn1cnc2cc(C(F)(F)F)nnc21 [Example 5, 7-methyl-3-(trifluoromethyl)-7H-imidazo[4,5-c]pyridazine] | 0.95
6 | Cn1c(-c2nc(Cl)ccc2F)nc2cc(C(F)(F)F)ncc21 [Example 2, 2-(6-chloro-3-fluoropyridin-2-yl)-3-methyl-6-(trifluoromethyl)-3H-imidazo[4,5-c]pyridine] | 2.38
7 | Cn1c(-c2nc(Br)ccc2F)nc2cc(C(F)(F)F)ncc21 [Example 4, 2-(6-bromo-3-fluoropyridin-2-yl)-3-methyl-6-(trifluoromethyl)-3H-imidazo[4,5-c]pyridine] | 2.51
